Experimental data reported in patent publication US6849653B2, “Substituted pyrazolyl benzenesulfamide compounds for the treatment of inflammation” (Pharmacia Corporation, priority 2001, dated 2005).
Where a name gives a salt, the structure may show the parent alone.

What follows are compounds tested against T1, IKK2 (IKKβ), rhIKK2 homodimer (Homo sapiens, UniProt O14920) (assay: IKKβ (IKK2) Resin Enzyme Assay). Conditions: Table 2; values given as bins; read-out: IKK2 Resin IC 50.
T1 construct: made in house; host or cells: insect cells (baculovirus; SF9)
T1 sequence (O14920 1-756): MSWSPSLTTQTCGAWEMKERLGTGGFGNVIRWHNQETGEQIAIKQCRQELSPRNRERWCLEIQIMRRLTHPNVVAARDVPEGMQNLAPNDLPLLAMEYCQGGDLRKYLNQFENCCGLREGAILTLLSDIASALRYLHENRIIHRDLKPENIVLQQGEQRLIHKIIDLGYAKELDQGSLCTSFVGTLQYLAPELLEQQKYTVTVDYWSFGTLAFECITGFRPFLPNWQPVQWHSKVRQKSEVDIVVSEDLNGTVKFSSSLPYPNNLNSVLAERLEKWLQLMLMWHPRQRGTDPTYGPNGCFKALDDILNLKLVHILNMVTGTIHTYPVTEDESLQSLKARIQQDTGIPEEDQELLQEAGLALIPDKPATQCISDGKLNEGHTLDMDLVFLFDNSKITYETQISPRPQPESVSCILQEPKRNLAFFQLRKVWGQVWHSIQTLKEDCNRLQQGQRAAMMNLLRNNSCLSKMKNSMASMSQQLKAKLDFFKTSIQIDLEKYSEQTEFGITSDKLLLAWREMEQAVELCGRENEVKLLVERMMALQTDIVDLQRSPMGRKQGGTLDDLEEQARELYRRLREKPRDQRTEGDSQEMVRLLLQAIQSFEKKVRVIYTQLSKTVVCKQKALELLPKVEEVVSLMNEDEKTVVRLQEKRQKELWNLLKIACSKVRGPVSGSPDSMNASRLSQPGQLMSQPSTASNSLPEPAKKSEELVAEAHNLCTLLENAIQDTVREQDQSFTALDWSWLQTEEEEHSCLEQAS
Type: biochemical
Text: cDNAs of human IKK1 and IKK2 were amplified by reverse transcriptase-polymerase chain reaction from human placental RNA (Clonetech). hIKK1 was subcloned into pFastBac HTa (Life Technologies) and expressed as N-terminal His6-tagged fusion protein. The hIKK2 cDNA was amplified using a reverse oligonucleotide primer which incorporated the peptide sequence for a FLAG-epitope tag at the C-terminus of the IKK2 coding region (DYKDDDDKD). The hIKK2:FLAG cDNA was subcloned into the baculovirus vector pFastBac. The rhIKK2 ([…]) mutant was constructed in the same vector used for wild type rhIKK2 using a QuikChange™ mutagenesis kit (Stratagene). Viral stocks of each construct were used to infect insect cells grown in 40L suspension culture. […] Cell lysates were stored at −80° C. until purification of the recombinant proteins was undertaken as described below.
Isolation of rhIKK2 Homodimer
A 10 liter culture of baculovirus-expressing IKK2 tagged with FLAG peptide was centrifuged and the cell pellet (MOI=0.1 and I=72 hrs) was re-suspended in buffer A. These cells were microfluidized, and centrifuged at 100,000×g for 45 min. Supernatant was passed over a G-25 column equilibrated with Buffer A. Protein peak was collected and incubated with anti-FLAG affinity resin on a rotator overnight in buffer B. The resin was washed in batch with 10-15 bed volumes of buffer C. Washed resin was poured into a column and rhIKK2 homodimer was eluted using 5 bed volumes of buffer B containing FLAG peptide. 5 mM DTT, 0.1% NP-40 and BSA (concentrated to 0.1% in final amount) was added to the eluted enzyme before concentrating in using an Amicon membrane with a molecular weight cut-off of 30 kDa. Enzyme was aliquoted and stored at −80° C.
IKKβ kinase activity was measured using a biotinylated IκBα peptide (Gly-Leu-Lys-Lys-Glu-Arg-Leu-Leu-Asp-Asp-Arg-His-Asp-Ser32-Gly-Leu-Asp-Ser36-Met-Lys-Asp-Glu-Glu) (American Peptide Co.). […] contained 5 μM biotinylated IκBα peptide, 0.1 μCi/reaction [γ-^33P] ATP (Amersham) (about 1×10^5 cpm), 1 μM ATP (Sigma), 1 mM DTT (Sigma), 2 mM MgCl2 (Sigma), 2 mM MnCl2 (Sigma), 10 mM NaF (Sigma), 25 mM Hepes (Sigma) buffer, pH 7.6 and 20 μl enzyme solution and […] inhibitor in a final volume of 50 μl. After incubation at 25° C. for 30 min, 150 μl resin (Dowex anion-exchange resin AG1X8 200-400 mesh) in 900 mM formate, pH 3.0 was added to each well to stop the reaction. Resin was allowed to settle for one hour and 50 ul of supernatant was removed to a Micolite-2 flat bottom plate (Dynex). 150 μl of scintillation fluid (Microscint 40) (Packard) was added to each well. Incorporation of [γ-^33P] ATP was measured using a Top-Count NXT (Packard).

Row | SMILES | IC50 [µM]
1 | CS(=O)(=O)c1ccc(-n2nc(C(N)=O)c3ccc4ccc(NC(=O)c5ccccc5Cl)cc4c32)cc1 [Example 37, 8-[(2-chlorobenzoyl)amino]-1-[4-(methylsulfonyl)phenyl]-1H-benzo[g]indazole-3-carboxamide] | ≤ 1
2 | CS(=O)(=O)c1ccc(-n2nc(C(N)=O)c3ccc4ccc(NC(=O)c5ccccc5F)cc4c32)cc1 [Example 42, 8-[(2-fluorobenzoyl)amino]-1-[4-(methylsulfonyl)phenyl]-1H-benzo[g]indazole-3-carboxamide] | 1 to 10
3 | CS(=O)(=O)c1ccc(-n2nc(C(N)=O)c3ccc4ccc(NC(=O)c5ccccc5C(F)(F)F)cc4c32)cc1 [Example 39, 1-[4-(methylsulfonyl)phenyl]-8-{[2-(trifluoromethyl)benzoyl]amino}-1H-benzo[g]indazole-3-carboxamide] | 1 to 10
4 | Cc1ccccc1C(=O)Nc1ccc2ccc3c(C(N)=O)nn(-c4ccc(S(C)(=O)=O)cc4)c3c2c1 [Example 38, 8-[(2-methylbenzoyl)amino]-1-[4-(methylsulfonyl)phenyl]-1H-benzo[g]indazole-3-carboxamide] | ≤ 1

Same assay, conditions: Table 3; read-out: IKK2 Resin IC 50

Row | SMILES | IC50 [µM]
5 | NC(=O)c1nn(-c2ccc(F)cc2)c2c1ccc1ccc(NC(=O)c3ccncc3Cl)cc12 [Example 43, 8-[(3-chloroisonicotinoyl)amino]-1-(4-fluorophenyl)-1H-benzo[g]indazole-3-carboxamide] | ≤ 1
6 | CS(=O)(=O)Nc1ccc2ccc3c(C(N)=O)nn(-c4ccc(F)cc4)c3c2c1 [Example 50, 1-(4-fluorophenyl)-8-[(methylsulfonyl)amino]-1H-benzo[g]indazole-3-carboxamide] | ≤ 1
7 | NC(=O)c1nn(-c2ccc(F)cc2)c2c1ccc1ccc(NC(=O)c3cccnc3Cl)cc12 [Example 51, 8-{[(2-chloropyridin-3-yl)carbonyl]amino}-1-(4-fluorophenyl)-1H-benzo[g]indazole-3-carboxamide] | ≤ 1
8 | NC(=O)c1nn(-c2ccc(F)cc2)c2c1ccc1ccc(NC(=O)c3ccccc3Cl)cc12 [Example 47, 8-[(2-chlorobenzoyl)amino]-1-(4-fluorophenyl)-1H-benzo[g]indazole-3-carboxamide] | 1 to 10
9 | NC(=O)c1nn(-c2ccc(F)cc2)c2c1cc(-c1cccnc1)c1ccc(NC(=O)c3ccncc3Cl)cc12 [Example 45, 8-[(3-chloroisonicotinoyl(amino]-1-(4-fluorophenyl)-5-pyridin-3-yl-1H-benzo[g]indazole-3-carboxamidedihydrochloride] | 1 to 10

Same assay, conditions: Table 4; values given as bins; read-out: IKK2 Resin IC 50

Row | SMILES | IC50 [µM]
10 | NC(=O)c1nn(-c2ccc3c(c2)OCO3)c2c1ccc1ccc(NC(=O)c3ccccc3Cl)cc12 [Example 54, 1-(1,3-benzodioxol-5-yl)-8-[(2-chlorobenzoyl)amino]-1H-benzo[g]indazole-3-carboxamide] | ≤ 1
11 | NC(=O)c1nn(-c2ccc3c(c2)OCO3)c2c1ccc1ccc(N)cc12 [Example 56, 8-amino-1-(1,3-benzodioxol-5-yl)-1H-benzo[g]indazole-3-carboxamide] | 1 to 10
12 | NC(=O)c1nn(-c2ccc3c(c2)OCO3)c2c1cc(Br)c1ccc(NC(=O)c3cccnc3Cl)cc12 [Example 57, 1-(1,3-benzodioxol-5-yl)-5-bromo-8-{[(2-chloropyridin-3-yl)carbonyl]amino}-1H-benzo[g]indazole-3-carboxamide] | ≤ 1
13 | NC(=O)c1nn(-c2ccc3c(c2)OCO3)c2c1ccc1ccc(NC(=O)c3ccncc3Cl)cc12 [Example 58, 1-(1,3-benzodioxol-5-yl)-8-[(3-chloroisonicotinoyl)amino]-1H-benzo[g]indazole-3-carboxamide] | ≤ 1
